In patent US8216363B2, “Continuous antisolvent crystallization process and system using plug flow reactors” (Illinois Institute of Technology, priority 2008, dated 2012):
Where two headings read alike, the source gives them in different places.

Assays:
[1] = Crystal size distribution of flufenamic acid crystals by particle analyzer probe (FBRM); assay type: physicochemical; conditions: FIG. 10
Method: An undersaturated solution of flufenamic acid (a non-steroidal anti-inflammatory drug) was prepared with 8.7 grams of the active pharmaceutical drug and 700 ml of ethanol (the solvent) in a 1000 ml volumetric flask. The solution was stirred at room temperature (i.e., 25° C.) until complete dissolution.
Flufenamic acid solution and water (the antisolvent) were added to the reactor at constant flow rates using peristaltic pumps. The flow rate of antisolvent added to reactor was chosen in order to maintain a solution/antisolvent ratio of 1:2 vol/vol (ml/ml) in all experiments.
The effects regarding number of addition points of antisolvent on particle size distribution were studied and are summarized in Table 3. In sum, four experiments were conducted. For each experiment, the total antisolvent flow rate was 200 ml/min. In Experiment 1, there was one antisolvent addition point with 200 ml/min of […] added therein. In Experiment 2, there were two antisolvent addition points with 100 ml/min of antisolvent added to the first and second reactor modules, respectively. In Experiment 3, there were three antisolvent addition points with 67 ml/min of antisolvent added to the first, second and third reactor modules, respectively. In Experiment 4, there were four antisolvent addition points with 50 ml/min of antisolvent added to the first, second, third and fourth reactor modules, respectively.
The Raman spectra of the product crystals was collected to ascertain polymorphic form. The CSD of the solid product was also characterized using a particle analyzer probe (e.g., a Lasentec brand probe). The dried crystals were slurried in water and 0.5% of sodium dodecyl sulfate (SDS) surfactant was added to disperse the particles. A magnetic stirrer was used to keep the particles suspended during particle analysis measurements.

[2] = water/methanol 80:20, one stage
Method: The solution was maintained at about 35° C., which is 10° C. above the saturation temperature, for at least 2 hours under gentle agitation for complete dissolution of solids. The solution was cooled down and maintained at room temperature (i.e., 25° C.) overnight (approximately 8 hours).
The concentration of antisolvent introduced to the reactor 403 was suitable to maintain a solution/antisolvent ratio of about 80:20 vol/vol (ml/ml) in all of the experiments.
Three experiments were conducted with one point of antisolvent addition (one stage or one reactor module). The residence time for experiments 1, 2 and 3 were 0.5 to 2 min, respectively.
The process was performed under vacuum. The solid phase was dried overnight (approximately 8 hours) at about 65° C. Raman spectra of the product crystals were collected to ascertain the polymorphic form.

[3] = Crystal size distribution of ketoconazole crystals by laser diffraction (continuous plug flow antisolvent crystallization); assay type: physicochemical
Method: A saturated solution of ketoconazole (an anti-fungal drug) was prepared with about 39 grams of the pharmaceutical compound and about 470 ml of methanol as the solvent in a 1000 ml volumetric flask. The solution was maintained at about 35° C. (10° C. above the saturation temperature) for about 2 hours under gentle agitation to ensure complete dissolution of the solids.
The ketoconazole feed solution (ketoconazole and methanol) and the antisolvent (water) were added to the reactor 403 at a constant flow rate using peristaltic pumps 405. The total amount of antisolvent added to the reactor 403 was enough to maintain a solution/antisolvent ratio of about 70:30 vol/vol (ml/ml) in all of the experiments.
The effect of residence time in the reactor (the term residence time is used to denote the total cumulative residence time in all of the reactor modules combined) and number of stages (that is, the number of reactor modules) on crystal size distribution was studied. […]
The effects of residence time and number of stages on the CSD were analyzed. […] Further, the diluted ketoconazole solid in methanol was measured with a UV spectrophotometer (e.g., a GENESYS 20 UV spectrophotometer) in order to determine the concentration of the ketoconazole. […]
The CSD of ketoconazole was measured at different residence times and number of stages as illustrated in Table 1 using laser diffraction. […]

In the case of O=C(O)c1ccccc1Nc1cccc(C(F)(F)F)c1 [flufenamic acid], the mean crystal size ([1]; first addition point of antisolvent, ethanol/water 1:2) is reported as 65-70 μm, the mean crystal size ([1]; printed as third addition point (second mention)) is reported as “approximately 110 μm” and the mean crystal size ([1]; second addition point of antisolvent) is reported as “approximately 80 μm”. The mean crystal size ([1]; third addition point of antisolvent) was “approximately 95 μm”.
With NCC(=O)O [glycine] the “polymorphic form of product crystals” value ([2]; as the residence time increased) was “β-glycine crystals” and the “polymorphic form of product crystals” value ([2]; low residence time) was “α-glycine crystals”.
In the case of CC(=O)N1CCN(c2ccc(OCC3COC(Cn4ccnc4)(c4ccc(Cl)cc4Cl)O3)cc2)CC1 (centres unmarked) [ketoconazole], the mean crystal size ([3]; FIG. 5, first stage of antisolvent addition, residence time about 40 min, methanol/water 70:30) is reported as “about 2.5 μm” and the mean crystal size ([3]; FIG. 7, two points of antisolvent addition) is reported as “about 3.0 μm”.
